# Patent publication US7094754B2, “Anti-aging and wound healing compounds” (Kimberly-Clark Worldwide, Inc., priority 2001, dated 2006)
# Legend:
# MMP-9 = molecular target: T1, MMP-9 (Homo sapiens, UniProt P14780); assay: Isothermal titration calorimetry with MMP-9; assay type: binding
# T1 construct: Active MMP-9 enzyme was purchased from Calbiochem; purchased Calbiochem
# Protocol: Isothermal titration calorimetry (ITC) was performed with a VP-ITC instrument from MicroCal, hIc. Titrations were carried out by injecting 5 μL of an inhibitor peptide solution (at concentration ranges from 0.5 mM to 2.0 mM) into the 1.4 mL stirred reaction cell. […] Titrations were conducted between 20° C. and 40° C. Typical experimental conditions for the titrations were a 10 second injection period followed by a 240 second delay between injections for a total of 40 injections. Blank titrations of inhibitor peptide into buffer were performed in order to correct for heats of dilution and mixing.
# The independent set of multiple binding sites is the most common model for binding experiment evaluations. The analytical solution for the total heat is determined by (Freire et al., 1990):
# [formula] where Q is the total heat, V is the cell volume, ΔH is the enthalpy, M is the macromolecule concentration (the binding partner in the cell), n is the binding stoichiometry, L is the ligand concentration (the binding partner in the syringe), and K is the association constant. Data were fit to this model using Origin version 5 (MicroCal, Inc.). Surface Plasmon Resonance
# The peptide was dissolved in 20 mM cacodylate (pH 6.8), 20 mM NaCl at a final concentration of 1 mM. MMP-9 was dialyzed into the same buffer at a final concentration of 20 μM. […]
# [1] = system: neutrophils isolated from human blood; assay: Neutrophil migration assay (transwell); assay type: cell-based; conditions: HSA 0.4%
# Protocol: Peptides were synthesized and purified by the Microchemical Facility at Emory University or by SigmaGenesis. All peptides were analyzed by mass spectrometry after HPLC to assess purity. Approximately 0.5–2.0 milligrams of peptide were used to make fresh stock solutions (5 mg/mL in HBSS/HSA) for each migration assay. The peptide stock solutions were used to make more dilute solutions (1 mg/mL, 100 μg/mL, 10 μg/mL, 1 μg/mL, 100 ng/mL, and 10 ng/mL) in HBSS/HSA for the assays.
# Neutrophils were isolated from human blood (collected in Vacutainerm tubes containing EDTA) by layering the blood/EDTA mixture (about 20 mL) on top of two layers of Histopaque™ 1119 (bottom layer, 18 mL) and 1077 (top layer, 7 mL) in 50 mL Falcon tubes. The tubes were centrifuged at 1800 rpm for 30 minutes (no brake). Four layers appeared in the tubes after the spin (from top to bottom layers): plasma, 1077, 1119, and red blood cells. The buffy coat between the plasma and 1077 layers contained lymphocytes, monocytes, and some platelets. The plasma layer, the buffy coat, and most of the 1077 layer was removed and discarded. The 1119 layer that contained the neutrophils was removed and was placed into a clean 50 mL tube. Dulbecco's Phosphate Buffered Saline (DPBS) was added to bring the volume to 50 mL. The cells were centrifuged for 15 minutes at 2100 rpm. The cells were resuspended in 10 mL of DPBS, transferred to 15 mL tubes, and centrifuged again for 10 minutes at 2000 rpm. This process was repeated to wash the cells a second time. After the supernatant was removed, the red blood cells were lysed by adding 6 mL of cold sterile water to each 15 mL of supernatant. Cells were mixed in the water for only 30 seconds. Six mL of cold 2% sterile saline was then added. Cells were centrifuged again for 10 minutes at 2000 rpm. The red supernatant (containing hemoglobin from red blood cells) was removed. This process of red blood cell lysis was repeated two more times to remove all of the red blood cells. After most of the red blood cells were removed, neutrophils were resuspended in 10 mL of HBSS/HSA for counting with trypan blue.
# A neutrophil migration assay was performed in duplicate using a 24-well transwell plate (3 μm pore size for membrane). Transwell membranes were pre-moistened with 20–40 μL of HBSS/HSA (0.04–0.4%). Chemotactic solutions (500 μL) were added to the bottom of each well. […] Transwells were then placed into the chemotactic solutions. The plate was placed into the incubator (37° C., 5% CO2) for one hour. Cells that migrated through the membrane were counted using trypan blue.
# In the neutrophil migration experiments, neutrophils that were isolated were approximately 95% viable. Neutrophils were resuspended in HBSS/0.4%HSA for this experiment. IL-8 (10 nM in the HBSS/0.4%HSA buffer) was used as a positive control for neutrophil migration.
# [2] = system: human skin fibroblast cell line (Clonetics, CC-2509); assay: Collagen production in human skin fibroblasts (Takara EIA kit); assay type: cell-based; conditions: for collagen production, Median (absorbance at 450 nm) / collagen production, Mean (absorbance at 450 nm): 48 hours; for collagen production, Mean (absorbance at 450 nm): n=2, control mean 0.7388
# Protocol: The stimulation response of the 19mer peptide (SEQ ID NO:11) on collagen production in the human skin fibroblast cell line (Clonetics, Walkersville, Md., normal human dermal fibroblasts, neonatal, catalog number CC-2509) was measured using Takara Biomedicals EIA assay kit (TAK MK101) sold by Panvera (Madison, Wis.). The cells were first grown in a 96-well assay system using Dulbecco's Modified Eagle's Medium (DMEM) with 10% fetal bovine serum (FBS) both purchased from Sigma Chemical Co, St. Louis, Mo. Serum-free DMEM was used as a control. […] Plates were incubated for 24 hours at 37° C. in a humidified 5% CO2 atmosphere. After incubation, the medium was aspirated and the wells were rinsed twice with 100 μl of serum-free DMEM. […] In addition, 100 μl of vehicle (serum-free DMEM) was added to 4 wells as control. All wells were incubated for 48 hours at 37° C. in a humidified, 5% CO2 atmosphere.
# The assay was performed using the recommended 20 ul of the supernatant from each well of the 96-well plate. Standard buffer and stop solutions were freshly prepared before running the assay. 100 ul of antibody-POD conjugate solution (supplied with the kit) was added into the wells using pre antibody coated 96 well plate (supplied with the kit). 20 ul of standard and test solutions (from the other 96-well plate containing fibroblasts) were added to appropriate wells. Plate was mixed gently, sealed and incubated for three hrs. at 37° C.
# After incubation each well was washed carefully four times with PBS buffer (400 ul). All the wells were completely emptied at the end of washing from any liquid. 100 ul of substrate solution (hydrogen peroxide and tetramethylbenzidine in a buffer solution, supplied with the kit) was added to each well and the plate was incubated for 15 minutes. At this point 100 ul of stop solution (freshly prepared 1N H2SO4) was added to each well in the same order as substrate. The plate was gently mixed and absorbance was read at 450 nm. Results were analyzed statistically using one-way ANOVA.
# T1 sequence (P14780 107-707 limits assumed): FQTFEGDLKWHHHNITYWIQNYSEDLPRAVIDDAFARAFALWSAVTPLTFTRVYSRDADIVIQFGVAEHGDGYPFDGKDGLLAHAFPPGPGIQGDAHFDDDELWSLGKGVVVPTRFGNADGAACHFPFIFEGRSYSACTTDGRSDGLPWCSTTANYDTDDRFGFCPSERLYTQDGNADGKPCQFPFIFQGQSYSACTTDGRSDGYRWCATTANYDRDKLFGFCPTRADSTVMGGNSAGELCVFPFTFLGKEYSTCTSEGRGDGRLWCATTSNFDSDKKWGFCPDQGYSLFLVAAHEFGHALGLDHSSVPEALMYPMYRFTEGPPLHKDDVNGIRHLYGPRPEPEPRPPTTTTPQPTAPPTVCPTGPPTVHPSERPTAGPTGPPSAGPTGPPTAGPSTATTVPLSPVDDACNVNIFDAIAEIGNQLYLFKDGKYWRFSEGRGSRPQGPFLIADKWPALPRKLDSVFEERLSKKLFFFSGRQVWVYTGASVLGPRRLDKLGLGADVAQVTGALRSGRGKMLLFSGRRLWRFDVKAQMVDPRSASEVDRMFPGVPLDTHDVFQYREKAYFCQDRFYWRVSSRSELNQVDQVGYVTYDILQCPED
structure (smiles),measurement,setting,value
CC(C)[C@H](NC(=O)[C@H](CC(=O)O)NC(=O)[C@@H]1CCCN1C(=O)[C@H](CC(N)=O)NC(=O)CNC(=O)[C@H](CS)NC(=O)[C@H](CCCNC(=N)N)NC(=O)[C@@H]1CCCN1)C(=O)N[C@@H](C)C(=O)N[C@@H](CC(N)=O)C(=O)N[C@@H](Cc1ccc(O)cc1)C(=O)N[C@@H](CC(N)=O)C(=O)N[C@@H](Cc1ccccc1)C(=O)N[C@@H](Cc1ccccc1)C(=O)N1CCC[C@H]1C(=O)N[C@@H](CCCNC(=N)N)C(=O)N[C@@H](CCCCN)C(=O)N1CCC[C@H]1C(=O)N[C@@H](CCCCN)C(=O)O [19-mer],Kd,MMP-9,606 nM
same,Stoichiometry,"MMP-9; ITC, 1 mM peptide into 20 μM MMP-9, 20 mM cacodylate (pH 6.8), 20 mM NaCl",0.975 ± 0.02
same,Percent Neutrophil Migration exp.1,[1]; 1 μg/mL,32%
same,Percent Neutrophil Migration exp.1,[1]; 10 μg/mL,22%
same,Percent Neutrophil Migration exp.1,[1]; 100 μg/mL,29%
same,Percent Neutrophil Migration exp.1,"[1]; 1 mg/mL, one hour",23%
same,"collagen production, Median (absorbance at 450 nm)",[2]; 1×10^−5 M,0.8365
same,"collagen production, Mean (absorbance at 450 nm)",[2]; 1×10^−5 M,0.8365
same,"collagen production, Median (absorbance at 450 nm)",[2]; 1×10^−6 M,0.8315
same,"collagen production, Mean (absorbance at 450 nm)",[2]; 1×10^−6 M,0.8315
same,collagen production versus control,"[2]; 10^−5 and 10^−6 M, P<0.001",increased collagen production at both concentrations employed
